Values after ≈ are worked out from the molar mass of the structure shown.
How the values were obtained:
[1] = tested on: Plasmodium falciparum; assay: Antimalarial activity against chloroquine-sensitive Plasmodium falciparum D6 infected in human type A+ erythrocytes after 48 hrs by [3H]-hypoxanthine incorporation assay; assay type: functional, organism-based
[2] = tested on: Plasmodium falciparum; assay: Antimalarial activity against chloroquine-resistant Plasmodium falciparum FCR-3/Gambia infected in human type A+ erythrocytes after 48 hrs by [3H]-hypoxanthine incorporation assay; assay type: functional, organism-based
[3] = tested on: Plasmodium falciparum; assay: Antimalarial activity against chloroquine-resistant Plasmodium falciparum Palo Alto/Ouganda infected in human type A+ erythrocytes after 48 hrs by [3H]-hypoxanthine incorporation assay; assay type: functional, organism-based
[4] = tested on: Plasmodium falciparum; assay: Antimalarial activity against chloroquine-resistant Plasmodium falciparum FcM29 infected in human type A+ erythrocytes after 48 hrs by [3H]-hypoxanthine incorporation assay; assay type: functional, organism-based
[5] = tested on: Plasmodium falciparum; assay: Antimalarial activity against chloroquine-sensitive Plasmodium falciparum F32 infected in human type A+ erythrocytes after 48 hrs by [3H]-hypoxanthine incorporation assay; assay type: functional, organism-based
[6] = tested on: Plasmodium falciparum; assay: Antimalarial activity against chloroquine-resistant Plasmodium falciparum FcB1/Columbia infected in human type A+ erythrocytes after 48 hrs by [3H]-hypoxanthine incorporation assay; assay type: functional, organism-based
[7] = tested on: Plasmodium falciparum; assay: Antimalarial activity against multiple drug-resistant Plasmodium falciparum C235; assay type: functional
[8] = tested on: Plasmodium falciparum; assay: Antimalarial activity against […] Plasmodium falciparum D6; assay type: functional
[9] = Permeability from apical to basolateral side in MDCK cells; assay type: ADME, cell-based, Canis lupus familiaris; conditions: dog, read-out: permeability
[10] = Elimination half life in FVB mouse plasma at 5 mg/kg, iv administered as single dose; assay type: ADME, organism-based; conditions: read-out: beta t1/2 (converted)
[11] = Drug uptake in FVB mouse brain at 5 mg/kg, iv administered as single dose by UPLC-MS/MS based equilibrium dialysis method; assay type: ADME, organism-based; conditions: in vivo
[12] = tested on: Plasmodium falciparum; assay: Antimalarial activity against chloroquine-resistant Plasmodium falciparum FcM29 infected in human red blood cells after 48 hrs by [3H]-hypoxanthine incorporation assay; assay type: functional, organism-based
[13] = tested on: Plasmodium falciparum; assay: Antimalarial activity against chloroquine-resistant Plasmodium falciparum FcB1 infected in human red blood cells after 48 hrs by [3H]-hypoxanthine incorporation assay; assay type: functional, organism-based
[14] = tested on: Plasmodium falciparum; assay: Antimalarial activity against chloroquine-sensitive Plasmodium falciparum Nigerian infected in human red blood cells after 48 hrs by [3H]-hypoxanthine incorporation assay; assay type: functional, organism-based
[15] = tested on: Plasmodium falciparum; assay: Antimalarial activity against chloroquine-sensitive Plasmodium falciparum FCH-5-C2 infected in human type A+ erythrocytes after 48 hrs by [3H]-hypoxanthine incorporation assay; assay type: functional, organism-based
[16] = tested on: Plasmodium falciparum; assay: Antimalarial activity against chloroquine-resistant Plasmodium falciparum T9/94 infected in human type A+ erythrocytes after 48 hrs by [3H]-hypoxanthine incorporation assay; assay type: functional, organism-based
[17] = tested on: Plasmodium falciparum; assay: Antimalarial activity against chloroquine-resistant Plasmodium falciparum ItG2F6 infected in human type A+ erythrocytes after 48 hrs by [3H]-hypoxanthine incorporation assay; assay type: functional, organism-based
[18] = tested on: Plasmodium falciparum; assay: Antimalarial activity against chloroquine-resistant Plasmodium falciparum W2 infected in human type A+ erythrocytes after 48 hrs by [3H]-hypoxanthine incorporation assay; assay type: functional, organism-based
[19] = tested on: Plasmodium falciparum; assay: Antimalarial activity against chloroquine-resistant Plasmodium falciparum 7G8 infected in human type A+ erythrocytes after 48 hrs by [3H]-hypoxanthine incorporation assay; assay type: functional, organism-based
[20] = tested on: Plasmodium falciparum; assay: Antimalarial activity against chloroquine-sensitive Plasmodium falciparum NF54 infected in human type A+ erythrocytes after 48 hrs by [3H]-hypoxanthine incorporation assay; assay type: functional, organism-based
[21] = tested on: Plasmodium falciparum; assay: Antimalarial activity against chloroquine-resistant Plasmodium falciparum W2MEF infected in human type A+ erythrocytes after 48 hrs by [3H]-hypoxanthine incorporation assay; assay type: functional, organism-based
[22] = tested on: Plasmodium falciparum; assay: Antimalarial activity against chloroquine-resistant Plasmodium falciparum RFCR-3 infected in human type A+ erythrocytes after 48 hrs by [3H]-hypoxanthine incorporation assay; assay type: functional, organism-based
[23] = tested on: Plasmodium falciparum; assay: Antimalarial activity against chloroquine-sensitive Plasmodium falciparum HB3 infected in human type A+ erythrocytes after 48 hrs by [3H]-hypoxanthine incorporation assay; assay type: functional, organism-based
[24] = tested on: Plasmodium falciparum; assay: Antimalarial activity against chloroquine-resistant Plasmodium falciparum K1 infected in human type A+ erythrocytes after 48 hrs by [3H]-hypoxanthine incorporation assay; assay type: functional, organism-based
[25] = tested on: Plasmodium falciparum; assay: Antimalarial activity against chloroquine-resistant Plasmodium falciparum INDO infected in human type A+ erythrocytes after 48 hrs by [3H]-hypoxanthine incorporation assay; assay type: functional, organism-based
[26] = tested on: Plasmodium falciparum; assay: Antimalarial activity against chloroquine-sensitive Plasmodium falciparum RF MEF3 infected in human type A+ erythrocytes after 48 hrs by [3H]-hypoxanthine incorporation assay; assay type: functional, organism-based
[27] = tested on: Plasmodium falciparum; assay: Antimalarial activity against chloroquine-sensitive Plasmodium falciparum Ro73 infected in human type A+ erythrocytes after 48 hrs by [3H]-hypoxanthine incorporation assay; assay type: functional, organism-based
[28] = tested on: Plasmodium falciparum; assay: microbe, parasite or virus in culture; conditions: D10, 24 h
Description: Antimalarial activity against chloroquine-sensitive Plasmodium falciparum D10 after 24 hrs by [G-3H]-hypoxanthine incorporation assay

[29] = tested on: Plasmodium falciparum; assay: microbe, parasite or virus in culture; conditions: K1, 24 h
Description: Antimalarial activity against chloroquine-resistant Plasmodium falciparum K1 after 24 hrs by [G-3H]-hypoxanthine incorporation assay

[30] = tested on: Plasmodium falciparum; assay: Antimalarial activity against chloroquine-resistant Plasmodium falciparum K1; assay type: functional; conditions: read-out: ED50 (the source's name)
[31] = tested on: Plasmodium falciparum; assay: Antimalarial activity against chloroquine-sensitive Plasmodium falciparum 3D7; conditions: 3D7, read-out: ED50

CC1(C)COC2(CCC(N[C@H]3CC[C@H](Nc4ccnc5cc(Cl)ccc45)CC3)CC2)OO1 (some centres undefined)
IC50 [1]: 7 to 24 nM | IC50 [2]: 7 to 24 nM | IC50 [3]: 7 to 24 nM | IC50 [4]: 7 to 24 nM | IC50 [5]: 7 to 24 nM | IC50 [6]: 7 to 24 nM

CN(CCNCC(O)c1cc(C(F)(F)F)nc2c(C(F)(F)F)cccc12)CC(O)c1cc(C(F)(F)F)nc2c(C(F)(F)F)cccc12 (centres undefined)
IC90 [7]: 0.022 to 0.08 µg/mL (≈ 0.032 to 0.116 µM) | IC90 [8]: 0.022 to 0.08 µg/mL (≈ 0.032 to 0.116 µM) | Papp A→B [9]: 0.14 ×10⁻⁶ cm/s | half-life [10]: 13 h | Drug uptake [11]: 97 ng/g

Fc1ccc(C(/C=C/C=C(\c2ccc(F)cc2)N2CCN(c3ccnc4cc(Cl)ccc34)CC2)=[N+]2CCN(c3ccnc4cc(Cl)ccc34)CC2)cc1
IC50 [12]: 468 nM | IC50 [13]: 444 nM | IC50 [14]: 350 nM

Clc1ccc2c(N[C@@H]3CCCC[C@H]3Nc3ccnc4cc(Cl)ccc34)ccnc2c1
IC50 [15]: 4 to 13 nM | IC50 [16]: 4 to 13 nM | IC50 [17]: 4 to 13 nM | IC50 [18]: 10 nM | IC50 [19]: 4 to 13 nM | IC50 [20]: 6 nM | IC50 [21]: 4 to 13 nM | IC50 [22]: 4 to 13 nM | IC50 [23]: 4 nM | IC50 [24]: 13 nM | IC50 [25]: 4 to 13 nM | IC50 [26]: 4 to 13 nM | IC50 [27]: 4 to 13 nM

CCN(CC)CCCC(C)Nc1cc(CCCCCCCCCCc2cc(NC(C)CCCN(CC)CC)c3ccccc3n2)nc2ccccc12 (centres undefined)
IC50 [28]: 43 nM

O[C@@H](c1cc(C(F)(F)F)nc2c(C(F)(F)F)cccc12)[C@H]1CCCCN1 [(S,R)-MEFLOQUINE]
IC50 [29]: 300 nM | IC50 [28]: 90 nM | half-life [10]: 23 h | Drug uptake [11]: 1600 ng/g

CCN(CC)CCCC(C)Nc1ccnc2cc(Cl)ccc12 (centres undefined) [CHLOROQUINE]
EC50 [30]: 1030 nM | EC50 [31]: 20 nM

Source: ChEMBL document CHEMBL4190314, “Quinoline hybrids and their antiplasmodial and antimalarial activities” (Eur J Med Chem, 2017)
